Measurements from PMC10574185, “Encapsulation and Biological Activity of Hesperetin Derivatives with HP-β-CD” (Molecules, 2023).
Converted amounts (≈) assume the structure as drawn. Where two headings read alike, the source gives them in different places.

Key:
[1] = DPPH assay (antioxidant activity); conditions: concentration 0.1 mg/mL, mean ± SD
Method: (§1) To evaluate the antioxidant ability of the tested systems, antioxidant analysis was performed. Antioxidants can scavenge hydroxyl radicals in two ways: by reacting directly with hydroxyl radicals (DPPH^•, ABTS^•+) or indirectly inhibiting the formation of hydroxyl radicals by chelating metal ions involved in the production of hydroxyl radicals. The antioxidant activity of the systems studied was investigated by using DPPH^• scavenging, ABTS^•+ scavenging ability, and Fe^2+-chelating ability. In this study, the antioxidant activity of pure hesperetin and its Schiff bases (HHSB, HIN, and HTSC) and HP-β-CD complexes were compared, and the positive control was Trolox.
The detailed methodology of DPPH assay was described in the previous paper by Sykuła et al..

HaCaT cells = assay: MTT cytotoxicity assay on HaCaT keratinocytes; assay type: cell-based, human; conditions: for IC50: Homo sapiens, MTT
Method: HaCaT keratinocyte cells were exposed to chemical compounds at nine different concentrations (from 3.9 to 995.6 µg/mL) in four replicates of each concentration for 24 and 48 h.
All compounds were dissolved in sterile DMSO (Merck Life Science, Warsaw, Poland) and were sterile-filtered with 0.22 µm pore size sterile disposable syringe filters.
HaCaT cell line (the normal immortalised human keratinocytes) used in the study derived from the 35th passage (the original material created by Prof. Dr. Petra Boukamp and Dr. Norbert Fusenig) was purchased from Cell Line Service GmbH (Eppelheim, Germany). The cells were cultured and propagated as described previously.
The cytotoxicity was assessed with MTT assay according to methodology applied previously.
The following final concentrations (in four replicates per experiment) of the test compounds were tested (µg/mL): 3.9; 7.8; 15.6; 31.1; 62.2; 124.5; 248.9; 497.8, and 995.6. […] Three independent experiments were conducted. The vehicle was cells in the culture medium. The assay was conducted for 24 h and 48 h.

[2] = Phase solubility studies with HP-β-CD; assay type: physicochemical
Method: The purpose of this part of the study was to determine the solubility of compounds of hesperetin and its Schiff bases (HHSB, HIN, and HTSC) in aqueous solution at different pHs and temperatures, and the effect of their inclusion in modified HP-β-CD on the aqueous solubility of these compounds at different pH values.
The effect of the presence of HP-β-CD at different temperatures (25, 37, and 60 °C) was determined by developing phase solubility diagrams.
In accordance with the methodology described in Section 3.4, excess amounts of each tested substance were added to aqueous solution with increasing concentration of HP-β-CD up to 16 mM, respectively, in 2 mL of 100 mM sodium acetate buffer (pH 3.6), 100 mM sodium phosphate buffer (pH 6.5) or 100 mM sodium borate buffer (pH 8.5).
Phase solubility studies were conducted according to [64] with some modifications. Excess amounts of each tested substance were added to aqueous solution with increasing concentration of HP-β-CD up to 16 mM, in 2 mL of 100 mM sodium acetate buffer (pH 3.6), 100 mM sodium phosphate buffer (pH 6.5), or 100 mM sodium borate buffer (pH 8.5), respectively. The samples were maintained in an ultrasonic bath at various temperatures (25, 37, and 60 °C) for 60 min to reach equilibrium. The aqueous solutions were then filtered through 0.45 µm acetate cellulose (CA) membrane filter and diluted. The tested compound concentration on each clear filtrate was spectrophotometrically determined by measuring at their wavelength maximum.
The complexation constant (Kc) between studied molecules and HP-β-CD was determined by using Equation (1):(1) Kc=slope/S0 (1−slope) where S0 means the water solubility of the studied substance, and “slope” means the slope of the phase solubility diagram.
Complexation efficiency was calculated from the slope of the phase solubility diagram using Equation (2):(2) CE=S0×Kc=slope/1−slope
The CE was also applied to evaluate the molar ratio in solution of tested systems using Equation (3):(3) Compound:HP−β−CD=1:(1+1/CE)

[3] = ABTS^•+ radical cation decolorization assay; conditions: concentration 0.1 mg/mL, mean ± SD
Method: as §1
Antioxidant activity using ABTS^•+ cation radical scavenging was determined according to a modified method. ABTS solution (2.5 mM) was mixed with 1.0 mM potassium persulfate solution and left at room temperature in the dark for 12-24 h. After this time, the absorbance of the finished ABTS^•+ solution was corrected with ethanol to 0.70 ± 0.02 at 745 nm. A total of 100 µL of the sample was reacted for 5 min with 2 mL of ABTS^•+ solution (A745 nm = 0.70 ± 0.02). The absorbance value of the reaction mixture was measured at 745 nm. […] Scavenging activity (%) = [1 − (Asample − Ablank)/Acontrol] × 100%(4) where Acontrol is the absorbance value of the control (ABTS^•+ solution with water), Ablank is the absorbance value of samples mixed with anhydrous ethanol, and Asample is the absorbance value of the added test sample to ABTS^•+ solution at 745 nm, respectively.

CE complexation efficiency ([2]; 25 °C, pH 3.6, with HP-β-CD): 0.7%
Kc complexation constant ([2]; 25 °C, pH 3.6, with HP-β-CD): 102 ± 43 M⁻¹
CE complexation efficiency ([2]; 25 °C, pH 6.5, with HP-β-CD): 0.2%
Kc complexation constant ([2]; 25 °C, pH 6.5, with HP-β-CD): 39 ± 3.6 M⁻¹
CE complexation efficiency ([2]; 25 °C, pH 8.5, with HP-β-CD): 1.3%
Kc complexation constant ([2]; 25 °C, pH 8.5, with HP-β-CD): 143 ± 1.6 M⁻¹
CE complexation efficiency ([2]; 37 °C, pH 3.6, with HP-β-CD): 1.3%
Kc complexation constant ([2]; 37 °C, pH 3.6, with HP-β-CD): 145 ± 13 M⁻¹
CE complexation efficiency ([2]; 37 °C, pH 6.5, with HP-β-CD): 0.04%
Kc complexation constant ([2]; 37 °C, pH 6.5, with HP-β-CD): 25 ± 3.9 M⁻¹
CE complexation efficiency ([2]; 37 °C, pH 8.5, with HP-β-CD): 0.04%
Kc complexation constant ([2]; 37 °C, pH 8.5, with HP-β-CD): 28 ± 3.9 M⁻¹
increase of solubility with HP-β-CD ([2]; 60 °C, pH 3.6): five-fold
CE complexation efficiency ([2]; 60 °C, pH 3.6, with HP-β-CD): 0.3%
Kc complexation constant ([2]; 60 °C, pH 3.6, with HP-β-CD): 62 ± 1.7 M⁻¹
increase of solubility with HP-β-CD ([2]; 60 °C, pH 6.5): five-fold
CE complexation efficiency ([2]; 60 °C, pH 6.5, with HP-β-CD): 0.3%
Kc complexation constant ([2]; 60 °C, pH 6.5, with HP-β-CD): 61 ± 2.6 M⁻¹
CE complexation efficiency ([2]; 60 °C, pH 8.5, with HP-β-CD): 3.7%
Kc complexation constant ([2]; 60 °C, pH 8.5, with HP-β-CD): 132 ± 23 M⁻¹
solubility at 60 min ([2]; aqueous buffer solutions, 25 °C, pH 3.6 to 8.5, read-out: solubility, increasing trend with increasing pH): 17 to 90 µM (≈ 7.16 to 37.9 µg/mL)
solubility at 60 min ([2]; aqueous buffer, thermodynamic from solid, 25 °C, pH 3.6 sodium acetate buffer, without cyclodextrin, read-out: solubility without HP-β-CD (value in brackets) (converted)): 29 µM (≈ 12.2 µg/mL)
solubility at 60 min ([2]; aqueous buffer, thermodynamic from solid, 25 °C, pH 6.5 sodium phosphate buffer, without cyclodextrin, read-out: solubility without HP-β-CD (value in brackets) (converted)): 17 µM (≈ 7.16 µg/mL)
solubility at 60 min ([2]; aqueous buffer, thermodynamic from solid, 25 °C, pH 8.5 sodium borate buffer, without cyclodextrin, read-out: solubility without HP-β-CD (value in brackets) (converted)): 20 µM (≈ 8.43 µg/mL)
solubility at 60 min ([2]; aqueous buffer, thermodynamic from solid, 37 °C, pH 3.6 sodium acetate buffer, without cyclodextrin, read-out: solubility without HP-β-CD (value in brackets) (converted)): 20 µM (≈ 8.43 µg/mL)
solubility at 60 min ([2]; aqueous buffer, thermodynamic from solid, 37 °C, pH 6.5 sodium phosphate buffer, without cyclodextrin, read-out: solubility without HP-β-CD (value in brackets) (converted)): 1 µM (≈ 0.421 µg/mL)
solubility at 60 min ([2]; aqueous buffer, thermodynamic from solid, 37 °C, pH 8.5 sodium borate buffer, without cyclodextrin, read-out: solubility without HP-β-CD (value in brackets) (converted)): 1 µM (≈ 0.421 µg/mL)
solubility at 60 min ([2]; aqueous buffer, thermodynamic from solid, 60 °C, pH 3.6 sodium acetate buffer, without cyclodextrin, read-out: solubility without HP-β-CD (value in brackets) (converted)): 8 µM (≈ 3.37 µg/mL)
solubility at 60 min ([2]; aqueous buffer, thermodynamic from solid, 60 °C, pH 6.5 sodium phosphate buffer, without cyclodextrin, read-out: solubility without HP-β-CD (value in brackets) (converted)): 8 µM (≈ 3.37 µg/mL)
solubility at 60 min ([2]; aqueous buffer, thermodynamic from solid, 60 °C, pH 8.5 sodium borate buffer, without cyclodextrin, read-out: solubility without HP-β-CD (value in brackets) (converted)): 143 µM (≈ 60.3 µg/mL)
solubility at 60 min ([2]; thermodynamic from solid, 25 °C, pH 3.6 sodium acetate buffer, with HP-β-CD, read-out: S0 (solubility with HP-β-CD)): 68 ± 40 µM (≈ 28.7 µg/mL)
solubility at 60 min ([2]; thermodynamic from solid, 25 °C, pH 6.5 sodium phosphate buffer, with HP-β-CD, read-out: S0 (solubility with HP-β-CD)): 52 ± 24 µM (≈ 21.9 µg/mL)
solubility at 60 min ([2]; thermodynamic from solid, 25 °C, pH 8.5 sodium borate buffer, with HP-β-CD, read-out: S0 (solubility with HP-β-CD)): 90 ± 50 µM (≈ 37.9 µg/mL)
solubility at 60 min ([2]; thermodynamic from solid, 37 °C, pH 3.6 sodium acetate buffer, with HP-β-CD, read-out: S0 (solubility with HP-β-CD)): 90 ± 50 µM (≈ 37.9 µg/mL)
solubility at 60 min ([2]; thermodynamic from solid, 37 °C, pH 6.5 sodium phosphate buffer, with HP-β-CD, read-out: S0 (solubility with HP-β-CD)): 15 ± 9 µM (≈ 6.32 µg/mL)
solubility at 60 min ([2]; thermodynamic from solid, 37 °C, pH 8.5 sodium borate buffer, with HP-β-CD, read-out: S0 (solubility with HP-β-CD)): 14 ± 10 µM (≈ 5.9 µg/mL)
solubility at 60 min ([2]; thermodynamic from solid, 60 °C, pH 3.6 sodium acetate buffer, with HP-β-CD, read-out: S0 (solubility with HP-β-CD)): 41 ± 20 µM (≈ 17.3 µg/mL)
solubility at 60 min ([2]; thermodynamic from solid, 60 °C, pH 6.5 sodium phosphate buffer, with HP-β-CD, read-out: S0 (solubility with HP-β-CD)): 41 ± 20 µM (≈ 17.3 µg/mL)
solubility at 60 min ([2]; thermodynamic from solid, 60 °C, pH 8.5 sodium borate buffer, with HP-β-CD, read-out: S0 (solubility with HP-β-CD)): 283 ± 27 µM (≈ 119 µg/mL)
SMILES: COc1ccc(C2C/C(=N\NC(=O)c3ccncc3)c3c(O)cc(O)cc3O2)cc1O (racemic) [HIN]
DPPH antioxidant activity [1]: 34.62 ± 3.8%
Non-cytotoxic concentration (IC0) (HaCaT cells; 24 h exposure): ≤ 7.8 µg/mL
Non-cytotoxic concentration (IC0) (HaCaT cells; 48 h exposure): ≤ 15.6 µg/mL
IC50 (HaCaT cells; 24 h exposure, read-out: IC50 After 24 h): 350 µg/mL (≈ 831 µM)
IC50 (HaCaT cells; 48 h exposure, read-out: IC50 After 48 h): 59.7 µg/mL (≈ 142 µM)
ABTS^•+ antioxidant activity [3]: 31.56 ± 1.6%
